Test results taken from US12220414B2, “Use of sGC stimulators for the treatment of mitochondrial disorders” (Tisento Therapeutics Inc., priority 2018, dated 2025).

Key:
PGC1α [1] = test: B-DNA gene expression assay, ZSF1 rat model; assay type: in vivo; conditions: ZSF1 obese rats
Protocol: There are 4 groups of animals in the study design: • 1. ZSF1 Lean—Vehicle (n=6) • 2. ZSF1 Obese—Vehicle (n=9) • 3. ZSF1 Obese—Compound A 10 mg/kg/day (n=9) • 4. […]
Animals in Group 4 was placed on drinking water containing enalapril and kept on Purina 5008 rodent chow (C13000). Animals in Groups 1-3 were kept on Purina 5008 rodent chow and drinking water. Ten days after the initiation of enalapril treatment, […] received Compound A at 10 mg/kg/day, respectively for 11 weeks (monotherapy). Beginning on day 10, animals in Groups 3 and 4 received Compound A at 10 mg/kg/day in addition to enalapril for an additional 11 weeks (combination therapy). […]
(§1) For gene expression analysis, 5-10 mg of tissue samples from ZSF1 rat liver, CCl4 rat liver, or DIO mice brain hypothalamus, or approximately 50 mg of white adipose tissue (WAT) from ZSF1 rat were homogenized and processed using QuantiGene sample processing kit according to manufacturer's instruction (Affymatrix, Fremont, CA). Gene expression in the tissue samples was measured using a QuantiGene 2.0 Plex Assay kit (Affymetrix) and multiplex gene panel specifically designed for each animal model following manufacture instructions. Analytes were measured using Luminex MAGPIX™ (Bio-Rad, Hercules, CA). […]

AMPK = test: B-DNA gene expression assay, DIO mouse model, WAT; assay type: in vivo; conditions: DIO mice; 6 mg/kg in diet, 28 days; FIG. 2A (AMPKα1, eWAT)
Protocol: (§2) Animals were fed either chow or high fat diet (Research Diets). The lean mice were maintained on a standard chow diet. The obese mice were given 60% high fat diet (HFD) starting at 6 weeks of age. All animals were allowed free access to drinking water and chow. The study began when the mice were 12 weeks of age and concluded after 4 weeks (16 weeks of age). The obese control group was maintained on HFD. Groups receiving compound treatments were fed with HFD containing 90 mg Compound A/kg diet (an approximate dose of 6 mg/kg) or 45 mg vericiguat/kg diet (an approximate dose of 3 mg/kg). Body weights were determined twice weekly and food intake was measured daily for 28 days. […]
as §1

Pparα = test: B-DNA gene expression assay, DIO mouse model, WAT; assay type: in vivo; conditions: DIO mice; 6 mg/kg in diet, 28 days; FIG. 2B (eWAT)
Protocol: as §2, §1

ADMA = conditions: diabetic patients; fourteen-day study (Hanrahan et al 2018); cited from earlier work
Pparγ = test: B-DNA gene expression assay, carbon tetrachloride (CCl4) rat model, liver; assay type: in vivo, Sprague-Dawley rat; conditions: CCl4 rats; 3 mg/kg; FIG. 2C
Protocol: Male, Sprague-Dawley rat were dosed with 0.25 ml/kg of CCl4 PO three times a week diluted in corn oil for the duration of the study (8 weeks). Control animals received an equivalent volume of corn oil. Two weeks after beginning the administration of CCl4, animals were given a chow admixture containing Compound A calculated to achieve doses of 3 mg/kg/day.
For gene expression analysis, 5-10 mg of tissue samples from ZSF1 rat liver, CCl4 rat liver, or DIO mice brain hypothalamus, or approximately 50 mg of white adipose tissue (WAT) from ZSF1 rat were homogenized and processed using QuantiGene sample processing kit according to manufacturer's instruction (Affymatrix, Fremont, CA). Gene expression in the tissue samples was measured using a QuantiGene 2.0 Plex Assay kit (Affymetrix) and multiplex gene panel specifically designed for each animal model following manufacture instructions. Analytes were measured using Luminex MAGPIX™ (Bio-Rad, Hercules, CA). Median fluorescence intensity (MFI) was generated for each gene target and normalized to the geometric mean expression of selected housekeeping genes, which were chosen to match the target transcript abundance.

[2] = test system: Leigh patient cells GM13740; test: ATP assay (ATPlite); assay type: cell-based, human; conditions: compound alone or in combination with DETA, 24 hrs
Protocol: (§3) Lymphoblast cells of LHON patient (GM11605 and GM10742) and Leigh patient (GM13740) were purchased from Coriell institute and cultured according to recommended growth condition from the vendor. The culture medium RPMI-1640 (ATCC, catalog #30-2006) containing 15% fetal bovine serum (Corning catalog #35-015-CV).
(§4) Corielll cells were plated on 96-well V-bottom culture plate (Corning Catalog #3894) at density of 200,000 cells per well in 90 ul RPMI-1640 media containing 2% FBS. Three hours later, 10 μL per well of 10× compounds (at its final conc.) diluted in RPMI-1640 media containing 2% FBS were added to the cells and incubated at 37 C for 24 hrs. The next day, ATP levels in the cells were measure using ATPlite kit (PerkinElmer Cat #6016943)

TFAM = test: bDNA gene expression assay in patient cells; assay type: cell-based, human; conditions: in the presence of DETA
Protocol: as §3
(§5) Coriell cells were plated on 96-well V-bottom culture plate (Corning Catalog #3894) at density of 200,000 cells per well in 90 ul RPMI-1640 media containing 2% FBS. Three hours later, 10 μL per well of 10× compounds (at its final conc.) diluted in RPMI-1640 media containing 2% FBS were added to the cells and incubated at 37 C for 24 hrs. The next day, cells were spun down by centrifuging in a benchtop centrifuge (Beckman Model #TJ-25) at 300 g for 5 min, media was removed and cell pellets were lysed in 100 μL/well with lysis mixture provided by QuantiGene sample processing kit (Affymetrix catalog #QS010). Gene expression in the cell lysates was measured using a QuantiGene 2.0 Plex Assay kit (Affymetrix catalog #QP1013) and multiplex gene panel (Thermo/Fisher, plex set #QGP-150-M19022101) according to manufacturer's protocols. Analytes were measured using Luminex MAGPIX™ (Bio-Rad, Hercules, CA). Median fluorescence intensity (MFI) was generated for each gene target and normalized to the geometric mean expression of three housekeeping genes (Hprt1, Ppib and Polr2a), which were chosen to match the target transcript abundance.

DDAH2 = test: bDNA gene expression assay in patient cells; assay type: cell-based, human; conditions: in the presence of DETA
Protocol: as §3, §5

[3] = test system: LHON patient cells GM10742; test: ATP assay (ATPlite); assay type: cell-based, human; conditions: compound alone or in combination with DETA, 24 hrs
Protocol: as §3, §4

[4] = test system: LHON patient cells GM11605; test: ATP assay (ATPlite); assay type: cell-based, human; conditions: compound alone or in combination with DETA, 24 hrs
Protocol: as §3, §4

PGC1α [5] = test: B-DNA gene expression assay, diet-induced obesity (DIO) mouse model, hypothalamus; assay type: in vivo; conditions: DIO mice, compound in high fat diet; FIG. 1C
Protocol: as §2, §1

sGC = molecular target: T1, sGC (Homo sapiens, UniProt Q02153); test: cGMP measurement in mitochondrial disease patient lymphoblast cells; assay type: cell-based; conditions: in combination with DETA
T1 construct: confirming functional expression of sGC in these patient cells; host or cells: human LHON and Leigh patient lymphoblast cells
T1 sequence (Q02153 1-619): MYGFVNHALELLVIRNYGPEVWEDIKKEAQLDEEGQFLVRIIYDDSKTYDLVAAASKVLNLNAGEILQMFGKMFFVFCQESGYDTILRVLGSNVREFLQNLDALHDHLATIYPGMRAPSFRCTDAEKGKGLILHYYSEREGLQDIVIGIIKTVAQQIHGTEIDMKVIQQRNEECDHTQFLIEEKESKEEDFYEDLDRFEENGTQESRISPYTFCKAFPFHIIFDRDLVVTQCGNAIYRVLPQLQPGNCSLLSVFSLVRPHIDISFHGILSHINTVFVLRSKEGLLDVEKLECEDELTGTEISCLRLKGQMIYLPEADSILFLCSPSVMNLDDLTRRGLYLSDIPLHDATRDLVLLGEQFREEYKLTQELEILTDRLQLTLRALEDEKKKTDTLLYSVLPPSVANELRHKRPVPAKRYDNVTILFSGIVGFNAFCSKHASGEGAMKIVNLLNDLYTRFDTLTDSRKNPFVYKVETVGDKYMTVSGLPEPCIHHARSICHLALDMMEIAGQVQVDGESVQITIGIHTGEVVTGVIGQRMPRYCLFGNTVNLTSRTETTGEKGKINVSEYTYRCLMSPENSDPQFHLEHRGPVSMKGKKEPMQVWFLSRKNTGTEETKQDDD
T1 sequence (Q02108 1-690 partner): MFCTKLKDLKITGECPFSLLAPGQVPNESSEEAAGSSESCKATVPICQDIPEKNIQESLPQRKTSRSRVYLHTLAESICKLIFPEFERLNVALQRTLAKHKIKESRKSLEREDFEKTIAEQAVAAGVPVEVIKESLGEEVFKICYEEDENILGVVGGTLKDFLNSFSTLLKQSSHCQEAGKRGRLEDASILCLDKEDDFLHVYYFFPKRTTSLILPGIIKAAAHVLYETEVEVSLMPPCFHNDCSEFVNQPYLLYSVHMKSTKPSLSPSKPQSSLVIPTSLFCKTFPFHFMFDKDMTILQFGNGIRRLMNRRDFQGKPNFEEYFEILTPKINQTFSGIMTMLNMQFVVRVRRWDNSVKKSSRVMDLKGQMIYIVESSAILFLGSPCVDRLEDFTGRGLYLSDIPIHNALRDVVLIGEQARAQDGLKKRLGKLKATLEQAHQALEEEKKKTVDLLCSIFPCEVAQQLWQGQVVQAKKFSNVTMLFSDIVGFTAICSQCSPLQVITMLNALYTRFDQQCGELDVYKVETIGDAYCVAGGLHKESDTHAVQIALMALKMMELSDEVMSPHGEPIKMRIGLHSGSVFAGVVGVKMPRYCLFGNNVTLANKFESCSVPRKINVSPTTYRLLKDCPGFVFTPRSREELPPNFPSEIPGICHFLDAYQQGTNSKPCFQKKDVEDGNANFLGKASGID
Protocol: as §3
On the day of the assay, Coriell cells were plated on 96-well V-bottom culture plate (Corning Catalog #3894) at density of 200,000 cells per well in 100 ul culture media. Right before the assay, cells were spun down by centrifuging in a benchtop centrifuge (Beckman Model #TJ-25) at 300 g for 5 min, media was removed and cell pellets were carefully washed once with 200 μL of HBSS containing Ca^2+ and Mg^2+ (Gibco catalog #14025-075). The cells were spun down, then 90 μL per well of HBSS containing 0.5 mM IBMX was added to the cells and were incubated at 37° C. for 15 min. Then 10 μL per well of 10× compounds (at its final conc.) diluted in HBSS solution containing IBMX plus different concentration of NO donor, DETA (final concentration of 0, 10 μM, 30 μM) was added to the cells and incubated at 37° C. for another 20 min. Cell pellets were spun down and lysed with 0.1 N HCl (100 ul/well). cGMP was measured using a cGMP Biotrak EIA kit (GE cat no. RPN226). cGMP concentrations of the samples were calculated from the standard curve.

SMILES: OC(CNc1nc(-c2cc(-c3ccon3)n(Cc3ccccc3F)n2)ncc1F)(C(F)(F)F)C(F)(F)F [Compound A]
- gene expression level of PGC1α in white adipose tissue (WAT) (PGC1α [1]; 10 mg/kg in combination with enalapril at 3 mg/kg, FIG. 1A): increased
- gene expression level of AMPK in WAT (AMPK): increased
- gene expression level of Pparα in WAT (Pparα): increased
- levels of circulating ADMA (ADMA): reduced
- gene expression level of Pparγ in liver (Pparγ): increased

SMILES: NC(=O)[C@](O)(CNc1nc(-c2cc(-c3ccon3)n(Cc3ccccc3F)n2)ncc1F)C(F)(F)F [Compound D]
- gene expression level of PGC1α in liver (PGC1α [1]; 30 mg/kg in combination with enalapril at 3 mg/kg, FIG. 1B): increased
- ATP production / ATP level [2]: increased ATP levels significantly

SMILES: Fc1ccccc1Cc1nc(-c2nc(C(F)(F)F)n[nH]2)cn2ccnc12 [Compound B]
- TFAM gene expression level (TFAM; LHON patient cells (GM11605), FIG. 5A): increased
- TFAM gene expression level (TFAM; Leigh patient cells (GM13740), FIG. 6A): increased
- DDAH2 gene expression level (DDAH2; LHON patient cells (GM11605), FIG. 5B): increased
- DDAH2 gene expression level (DDAH2; Leigh patient cells (GM13740), FIG. 6B): increased
- ATP production / ATP level [3]: increase
- ATP production / ATP level [4]: increase
- ATP production / ATP level [2]: increase
- PGC1α expression in hypothalamus (PGC1α [5]): increased PGC1α expression significantly

SMILES: Fc1ccccc1Cn1nc(-c2nc(C(F)(F)F)n[nH]2)c2cccnc21 [Compound E]
- cGMP formation (sGC; LHON patient cells GM10742, FIG. 3B): significantly activated
- cGMP formation (sGC; LHON patient cells GM11605, FIG. 3A): significantly activated
- cGMP formation (sGC; Leigh patient cells GM13740, FIG. 3C): significantly activated
- ATP production / ATP level [4]: significantly increase
- ATP production / ATP level [2]: significantly increase
